Results: US12077483B2, “Modified amine lipids” (Intellia Therapeutics, Inc., priority 2018, dated 2024)

Experiments:
[1] = RNA encapsulation efficiency of LNP (Ribogreen fluorescence assay); format: physicochemical; conditions: LNP with the compound as amine lipid
Procedure: A fluorescence-based assay (Ribogreen®, ThermoFisher Scientific) is used to determine total RNA concentration and free RNA. Encapsulation efficiency is calculated as (Total RNA—Free RNA)/Total RNA. LNP samples are diluted appropriately with 1× TE buffer containing 0.2% Triton-X 100 to determine total RNA or 1× TE buffer to determine free RNA. Standard curves are prepared by utilizing the starting RNA solution used to make the compositions and diluted in 1× TE buffer+/−0.2% Triton-X 100. Diluted RiboGreen® dye (according to the manufacturer's instructions) is then added to each of the standards and samples and allowed to incubate for approximately 10 minutes at room temperature, in the absence of light. A SpectraMax M5 Microplate Reader (Molecular Devices) is used to read the samples with excitation, auto cutoff and emission wavelengths set to 488 nm, 515 nm, and 525 nm respectively. Total RNA and free RNA are determined from the appropriate standard curves.
Encapsulation efficiency is calculated as (Total RNA−Free RNA)/Total RNA. The same procedure may be used for determining the encapsulation efficiency of a DNA-based cargo component. For single-strand DNA, Oligreen Dye may be used and for double-strand DNA, Picogreen Dye.

[2] = LNP average particle size and polydispersity by dynamic light scattering; format: physicochemical; conditions: LNP with the compound as amine lipid
Text: The LNPs have a size of about 1 to about 1,000 nm, about 10 to about 500 nm, about 20 to about 500 nm, in a sub-embodiment about 50 to about 400 nm, in a sub-embodiment about 50 to about 300 nm, in a sub-embodiment about 50 to about 200 nm, and in a sub-embodiment about 50 to about 150 nm, and in another sub-embodiment about 60 to about 120 nm. Preferably, the LNPs have a size from about 60 nm to about 100 nm. The average sizes (diameters) of the fully formed LNP, may be measured by dynamic light scattering on a Malvern Zetasizer. The LNP sample is diluted in phosphate buffered saline (PBS) so that the count rate is approximately 200-400 kcps. The data is presented as a weighted average of the intensity measure.
In some embodiments, the LNPs have a size of about 75 to about 120 nm. In some embodiments, the LNPs have a size of about 75 to about 100 nm. Unless indicated otherwise, all sizes referred to herein are the average sizes (diameters) of the fully formed nanoparticles, as measured by dynamic light scattering on a Malvern Zetasizer. The nanoparticle sample is diluted in phosphate buffered saline (PBS) so that the count rate is approximately 200-400 kcps. The data is presented as a weighted-average of the intensity measure (Z-average diameter).
Dynamic Light Scattering (“DLS”) is used to characterize the polydispersity index (“pdi”) and size of the LNPs of the present disclosure. DLS measures the scattering of light that results from subjecting a sample to a light source. PDI, as determined from DLS measurements, represents the distribution of particle size (around the mean particle size) in a population, with a perfectly uniform population having a PDI of zero. Electropheretic light scattering is used to characterize the surface charge of the LNP at a specified pH. The surface charge, or the zeta potential, is a measure of the magnitude of electrostatic repulsion/attraction between particles in the LNP suspension. Asymmetric-Flow Field Flow Fractionation—Multi-Angle Light Scattering (AF4-MALS) is used to separate particles in the composition by hydrodynamic radius and then measure the molecular weights, hydrodynamic radii and root mean square radii of the fractionated particles. […] Nanoparticle tracking analysis (NTA, Malvern Nanosight) can be used to determine particle size distribution as well as particle concentration. LNP samples are diluted appropriately and injected onto a microscope slide. A camera records the scattered light as the particles are slowly infused through field of view. After the movie is captured, the Nanoparticle Tracking Analysis processes the movie by tracking pixels and calculating a diffusion coefficient. This diffusion coefficient can be translated into the hydrodynamic radius of the particle. The instrument also counts the number of individual particles counted in the analysis to give particle concentration.
LNP compositions are analyzed for average particle size, polydispersity index (pdi), total RNA content, encapsulation efficiency of RNA, and zeta potential. LNP compositions may be further characterized by lipid analysis, AF4-MALS, NTA, and/or cryo-EM. Average particle size and polydispersity are measured by dynamic light scattering (DLS) using a Malvern Zetasizer DLS instrument. LNP samples were diluted with PBS buffer prior to being measured by DLS. Z-average diameter which is an intensity-based measurement of average particle size was reported along with number average diameter and pdi. A Malvern Zetasizer instrument is also used to measure the zeta potential of the LNP. Samples are diluted 1:17 (50 μL into 800 μL) in 0.1×PBS, pH 7.4 prior to measurement.

[3] = pKa of amine lipid by TNS fluorescence; format: physicochemical; conditions: probe TNS (6-(p-toluidino)-2-naphthalenesulfonic acid sodium salt), unformulated amine lipid in ethanol, sodium phosphate buffers -9.0
In short: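 Unformulated amine lipid, about 100 μM final, in 0.1 M sodium phosphate buffers spanning pH 4.5–9.0 with TNS. Fluorescence read at ex 321/em 448 nm; normalized data fitted sigmoidally to give pKa.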

mouse TTR = test: Serum TTR ELISA in mice after LNP delivery; format: in vivo; conditions: mouse serum, relative to TSS control of same experiment
In short: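 Female CD-1 mice received LNP at 0.1 mpk unless noted; serum was collected 6 or 7 days later. Total serum TTR was measured by mouse prealbumin ELISA at 10,000- and/or 2,500-fold dilution and is expressed as a percentage of vehicle control.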

[4] = Expt. 4, composition ratio (mol %) 50/9/38/3 for Cmpnd 49, 50/10/38.5/1.5 for the others
[5] = Expt. 8, composition ratio (mol %) 50/9/38/3 for Cmpnd 49, 50/10/38.5/1.5 for the others
[6] = Expt. 7, composition ratio (mol %) 50/9/38/3 for Cmpnd 49, 50/10/38.5/1.5 for the others
[7] = Expt. 5, composition ratio (mol %) 50/10/38.5/1.5

Compound	Encapsulation (%) [1, 4]	Num Ave Size (nm) [2, 4]	PDI [2, 4]	Z-Ave Size (nm) [2, 4]	pKa [3]	Serum TTR % TSS (mouse TTR; dose 0.03 mpk)	Serum TTR % TSS (mouse TTR; dose 0.1 mpk)	Encapsulation (%) [1, 5]	Num Ave Size (nm) [2, 5]	PDI [2, 5]	Z-Ave Size (nm) [2, 5]	Encapsulation (%) [1, 6]	Num Ave Size (nm) [2, 6]	PDI [2, 6]	Z-Ave Size (nm) [2, 6]	Encapsulation (%) [1, 7]	Num Ave Size (nm) [2, 7]	PDI [2, 7]	Z-Ave Size (nm) [2, 7]
CCCCC/C=C\C/C=C\CCCCCCCC(=O)OCC(COC(=O)CCCCCCC/C=C\C/C=C\CCCCC)OC(=O)CCC(CCCCC)OC(=O)NCCN(C)CC (stereo not shown) [Compound 69, 2-((4-(((2-(ethyl(methyl)amino)ethyl)carbamoyl)oxy)nonanoyl)oxy)propane-1,3-diyl (9Z,9′Z,12Z,12′Z)-bis(octadeca-9,12-dienoate)]	96%	88.76 nm	0.017	108.90 nm	6.44	54% TSS	12% TSS												
CCCCC/C=C\C/C=C\CCCCCCCC(=O)OCC(COC(=O)CCCCCCC/C=C\C/C=C\CCCCC)OC(=O)CCC(CCCCC)OC(=O)NCC1CCCN1C (stereo not shown) [Compound 70, 2-((4-((((1-methylpyrrolidin-2-yl)methyl)carbamoyl)oxy)nonanoyl)oxy)propane-1,3-diyl (9Z,9′Z,12Z,12′Z)-bis(octadeca-9,12-dienoate)]					6.61	126.29 % TSS	87.49 % TSS	99%	102 nm	0.018	124.2 nm								
CCCCC/C=C\C/C=C\CCCCCCCC(=O)OCC(COC(=O)CCCCCCC/C=C\C/C=C\CCCCC)OC(=O)CCC(CCCCC)OC(=O)OCCCN1CCCC1 (stereo not shown) [Compound 71, 2-((4-(((3-(pyrrolidin-1-yl)propoxy)carbonyl)oxy)nonanoyl)oxy)propane-1,3-diyl (9Z,9′Z,12Z,12′Z)-bis(octadeca-9,12-dienoate)]					6.28	47.425 % TSS	15.055 % TSS					97%	86.63 nm	0.035	104.5 nm				
CCCCC/C=C\C/C=C\CCCCCCCC(=O)OCC(COC(=O)CCCCCCC/C=C\C/C=C\CCCCC)OC(=O)CCC(CCCCCCC)OC(=O)NCCN(C)CC (stereo not shown) [Compound 73, 2-((4-(((2-(ethyl(methyl)amino)ethyl)carbamoyl)oxy)undecanoyl)oxy)propane-1,3-diyl (9Z,9′Z,12Z,12′Z)-bis(octadeca-9,12-dienoate)]	97%	76.59 nm	0.029	95.81 nm	6.41	25% TSS	4% TSS												
CCCCC/C=C\C/C=C\CCCCCCCC(=O)OCC(COC(=O)CCCCCCC/C=C\C/C=C\CCCCC)OC(=O)CCC(CCCCCCC)OC(=O)NCC1CCCN1C (stereo not shown) [Compound 74, 2-((4-((((1-methylpyrrolidin-2-yl)methyl)carbamoyl)oxy)undecanoyl)oxy)propane-1,3-diyl (9Z,9′Z,12Z,12′Z)-bis(octadeca-9,12-dienoate)]					6.44	100.54 % TSS	110.06 % TSS	99%	74.58 nm	0.024	92.14 nm								
CCCCC/C=C\C/C=C\CCCCCCCC(=O)OCC(COC(=O)CCCCCCC/C=C\C/C=C\CCCCC)OC(=O)CCC(CCCCCCC)OC(=O)OCCCN1CCCC1 (stereo not shown) [Compound 75, 2-((4-(((3-(pyrrolidin-1-yl)propoxy)carbonyl)oxy)undecanoyl)oxy)propane-1,3-diyl (9Z,9′Z,12Z,12′Z)-bis(octadeca-9,12-dienoate)]					6.17	45.098 % TSS	11.996 % TSS					98%	73.46 nm	0.02	89.78 nm				
CCCCC/C=C\C/C=C\CCCCCCCC(=O)OCC(COC(=O)CCCCCCC/C=C\C/C=C\CCCCC)OC(=O)CCC(CCCCCC)OC(=O)NCCN1CCC1 (stereo not shown) [Compound 77, 2-((4-(((2-(azetidin-1-yl)ethyl)carbamoyl)oxy)decanoyl)oxy)propane-1,3-diyl (9Z,9′Z,12Z,12′Z)-bis(octadeca-9,12-dienoate)]					7.23	68.3 % TSS	80.6 % TSS									98%	78 nm	0.08	104.00 nm
CCCCC/C=C\C/C=C\CCCCCCCC(=O)OCC(COC(=O)CCCCCCC/C=C\C/C=C\CCCCC)OC(=O)CCC(CCCCCC)OC(=O)NCCN1CCCCC1 (stereo not shown) [Compound 78, 2-((4-(((2-(piperidin-1-yl)ethyl)carbamoyl)oxy)decanoyl)oxy)propane-1,3-diyl (9Z,9′Z,12Z,12′Z)-bis(octadeca-9,12-dienoate)]					5.93	99.8 % TSS	66.5 % TSS									97%	59 nm	0.13	91.00 nm
CCCCC/C=C\C/C=C\CCCCCCCC(=O)OCC(COC(=O)CCCCCCC/C=C\C/C=C\CCCCC)OC(=O)CCC(CCCCCC)OC(=O)NC(C)(C)CN1CCCC1 (stereo not shown) [Compound 79, 2-((4-(((2-methyl-1-(pyrrolidin-1-yl)propan-2-yl)carbamoyl)oxy)decanoyl)oxy)propane-1,3-diyl (9Z,9′Z,12Z,12′Z)-bis(octadeca-9,12-dienoate)]					4.96	86.9 % TSS	100.4 % TSS									98%	55 nm	0.09	75.00 nm
CCCCC/C=C\C/C=C\CCCCCCCC(=O)OCC(COC(=O)CCCCCCC/C=C\C/C=C\CCCCC)OC(=O)CCC(CCCCCC)OC(=O)NC1CN(C)C1 (stereo not shown) [Compound 84, 2-((4-(((1-methylazetidin-3-yl)carbamoyl)oxy)decanoyl)oxy)propane-1,3-diyl (9Z,9′Z,12Z,12′Z)-bis(octadeca-9,12-dienoate)]					7.39	80.3 % TSS	73.2 % TSS									99%	75 nm	0.03	91.00 nm
